Experimental data: ChEMBL document CHEMBL1201862, “PubChem BioAssay data set” (2004)
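Method: 48-hour compound exposure of cells in 96-well plates, five concentrations, linear interpolation of endpoints. At the GI50, growth is halved.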 Active and inactive are the calls of the source. Cut-off read from the data, not from the text of the source: active = GI50 up to about 1.1 µM and inactive = higher.

Key:
Experiment in all cases: NCI-60 cell line screen, 48 h
HOP-18 = system: HOP-18
XF498 = system: XF498
DLD-1 = system: DLD-1
DMS-273 = system: DMS-273
DMS-114 = system: DMS-114
LXFL 529 = system: LXFL 529
RXF 631 = system: RXF 631
KM-20L2 = system: KM-20L2
SNB-78 = system: SNB-78

SMILES | GI50 (HOP-18) | GI50 (XF498) | GI50 (DLD-1) | GI50 (DMS-273) | GI50 (DMS-114) | GI50 (LXFL 529) | GI50 (RXF 631) | GI50 (KM-20L2) | GI50 (SNB-78)
Cc1cc(C)nc(NS(=O)(=O)c2ccc(NC(=O)c3cccc4c(Nc5ccc(S(N)(=O)=O)cc5)c5ccccc5nc34)cc2)n1 | > 56 µM (inactive) | 39.2 µM (inactive) | > 93.3 µM (inactive) | 34.8 µM (inactive) | 17.5 µM (inactive) | 3.92 µM (inactive) | > 100 µM (inactive) | > 75.5 µM (inactive) | 9.79 µM (inactive)
CC1=NN(C(=O)c2ccc(Cl)cc2)C(=O)/C1=C/c1ccc(O)cc1 | – | > 100 µM (inactive) | > 100 µM (inactive) | – | > 100 µM (inactive) | > 100 µM (inactive) | – | > 100 µM (inactive) | –
COC(=O)C1(F)C(=O)NC(=O)NC1OC (stereo not given) | 88.7 µM (inactive) | 67.1 µM (inactive) | 5.92 µM (inactive) | 21.2 µM (inactive) | 73.3 µM (inactive) | – | – | 50.9 µM (inactive) | > 100 µM (inactive)
COc1ccc2c(c1)[n+]([O-])c(C(=O)CC(=O)C(=O)Nc1cccc(Cl)c1C)c(C)[n+]2[O-] | > 100 µM (inactive) | – | – | > 100 µM (inactive) | – | > 100 µM (inactive) | – | > 100 µM (inactive) | > 100 µM (inactive)
CC(=O)Nc1ccc(C(=O)NN2C(=O)C(Cl)C2c2cc(Br)ccc2O)cc1 (stereo not given) | 4.41 µM (inactive) | – | 4.74 µM (inactive) | – | – | 14.4 µM (inactive) | – | – | –
O=C[C@@H](CO)O[C@H](C=O)c1c[nH]c(=O)[nH]c1=O | 95.1 µM (inactive) | 24.7 µM (inactive) | 75 µM (inactive) | > 81.5 µM (inactive) | 37.6 µM (inactive) | – | – | 84.3 µM (inactive) | 133 µM (inactive)
CS(=O)(=O)NNS(=O)(=O)c1ccc(Cl)cc1 | – | > 100 µM (inactive) | > 100 µM (inactive) | > 100 µM (inactive) | > 100 µM (inactive) | > 100 µM (inactive) | > 100 µM (inactive) | > 100 µM (inactive) | –
COC(=O)CCC(NC(=S)N/N=C/c1ccco1)C(=O)OC (stereo not given) | > 100 µM (inactive) | > 100 µM (inactive) | > 100 µM (inactive) | > 100 µM (inactive) | > 100 µM (inactive) | > 100 µM (inactive) | > 100 µM (inactive) | > 100 µM (inactive) | > 100 µM (inactive)
CCOP(=O)(OCC)/C(C#N)=C/c1ccco1 | > 100 µM (inactive) | > 100 µM (inactive) | > 100 µM (inactive) | – | > 100 µM (inactive) | > 100 µM (inactive) | > 100 µM (inactive) | – | > 100 µM (inactive)
CN(C)CC1CCC(=C2CCCC2)C1=O (stereo not given) | 16.7 µM (inactive) | 6.84 µM (inactive) | 2.82 µM (inactive) | 18.3 µM (inactive) | 8.81 µM (inactive) | 3.24 µM (inactive) | – | 18.7 µM (inactive) | 12.6 µM (inactive)
COC1=CC2(C=CC1=O)c1cc(OC)c(OC)cc1CCN2C(=O)c1ccccc1 (stereo not given) | 98.2 µM (inactive) | – | > 100 µM (inactive) | > 100 µM (inactive) | > 100 µM (inactive) | > 100 µM (inactive) | – | – | > 100 µM (inactive)
CCCCC#COP(=O)(OCC)OCC | – | – | > 100 µM (inactive) | – | > 100 µM (inactive) | > 100 µM (inactive) | > 100 µM (inactive) | > 100 µM (inactive) | > 100 µM (inactive)
O=C1c2ccccc2C(Br)(Br)c2ccccc21 | > 31.6 µM (inactive) | 29.3 µM (inactive) | > 31.6 µM (inactive) | > 31.6 µM (inactive) | > 31.6 µM (inactive) | > 31.6 µM (inactive) | – | > 100 µM (inactive) | > 100 µM (inactive)
Cc1ccc2ccc3ccc(C)nc3c2n1 [NEOCUPROINE] | 63.4 µM (inactive) | – | 0.656 µM (active) | 2.36 µM (inactive) | 0.388 µM (active) | 0.679 µM (active) | – | 6.24 µM (inactive) | > 100 µM (inactive)
Cc1ccccc1/N=C/c1ccc(N(CCC#N)S(=O)(=O)c2ccccc2)cc1 | > 100 µM (inactive) | > 100 µM (inactive) | > 100 µM (inactive) | > 100 µM (inactive) | > 100 µM (inactive) | > 100 µM (inactive) | > 100 µM (inactive) | > 100 µM (inactive) | > 100 µM (inactive)
CCc1cccc(CC)c1NC(=O)C(C#N)C1=C(Cl)C(=O)c2ccccc2C1=O (stereo not given) | 15.5 µM (inactive) | 15.9 µM (inactive) | 17.4 µM (inactive) | 17.9 µM (inactive) | 22 µM (inactive) | 16.1 µM (inactive) | 16.1 µM (inactive) | 21.4 µM (inactive) | 8.15 µM (inactive)
CC1(C)C(=O)/C=C\C(=O)C(C)(C)C(=O)/C=C\C(=O)C(C)(C)C(=O)/C=C\C(=O)C(C)(C)C(=O)/C=C\C1=O | 22.3 µM (inactive) | 30.3 µM (inactive) | 14.9 µM (inactive) | 16.8 µM (inactive) | – | 7.28 µM (inactive) | – | 26.6 µM (inactive) | 17.4 µM (inactive)
COC(=O)C1=C(c2ccc(Cl)cc2)C(O)NC(NN)=N1 (stereo not given) | > 100 µM (inactive) | > 100 µM (inactive) | > 100 µM (inactive) | – | > 100 µM (inactive) | > 100 µM (inactive) | > 100 µM (inactive) | – | > 100 µM (inactive)
CC12CCc3ccccc3C1=NNC(=O)C2 (stereo not given) | > 100 µM (inactive) | > 100 µM (inactive) | > 100 µM (inactive) | > 100 µM (inactive) | > 100 µM (inactive) | > 100 µM (inactive) | – | > 100 µM (inactive) | > 100 µM (inactive)
CC(=O)OCC(=O)[C@@]1(O)CC[C@H]2[C@@H]3CCC4=CC(=O)[C@H](C)C[C@]4(C)[C@H]3[C@@H](O)C[C@@]21C | > 100 µM (inactive) | > 100 µM (inactive) | > 100 µM (inactive) | > 100 µM (inactive) | > 100 µM (inactive) | – | – | > 100 µM (inactive) | 9.77 µM (inactive)
CC1=C(c2cc(C(=O)Nc3cccc(C(F)(F)F)c3)nc(NC#N)n2)Sc2ccccc2N1 | > 100 µM (inactive) | – | > 100 µM (inactive) | > 100 µM (inactive) | > 100 µM (inactive) | > 100 µM (inactive) | > 100 µM (inactive) | > 100 µM (inactive) | > 100 µM (inactive)
CCOC(=O)c1c(-c2ccccc2)oc(-c2ccccc2)c1C(=O)OCC | > 100 µM (inactive) | 29.2 µM (inactive) | > 100 µM (inactive) | > 100 µM (inactive) | > 100 µM (inactive) | 34.6 µM (inactive) | – | 38.9 µM (inactive) | > 100 µM (inactive)
Cc1ccc2c(c1)C(c1cccc3ccccc13)OC2=O (stereo not given) | 71.6 µM (inactive) | – | 75 µM (inactive) | > 100 µM (inactive) | > 100 µM (inactive) | > 100 µM (inactive) | 27.7 µM (inactive) | > 100 µM (inactive) | –
NC(=S)/N=C(/c1nc2ccc(Cl)cc2nc1O)C(O)c1ccccc1Cl (stereo not given) | 33.8 µM (inactive) | > 100 µM (inactive) | > 100 µM (inactive) | > 100 µM (inactive) | > 100 µM (inactive) | > 100 µM (inactive) | – | > 100 µM (inactive) | –
CC(C)NC(=O)CCN(C(=O)O)S(=O)(=O)c1ccc(NC(=O)c2ccccc2)cc1 | > 100 µM (inactive) | > 100 µM (inactive) | > 41.6 µM (inactive) | > 42.7 µM (inactive) | > 39.4 µM (inactive) | > 93.8 µM (inactive) | > 100 µM (inactive) | > 100 µM (inactive) | > 100 µM (inactive)
